These results are taken from patent US6420391B1, “Fused thiophone derivatives and drugs containing the same as the active ingredient” (Ono Pharmaceutical Co., Ltd., priority 1998, dated 2002).

Counter-ions that a name gives are not always drawn.

Holding throughout (type): cell-based
Series [1] relates to IL-6 production in A549 cells (human lung epithelial cell line). Nature of the series: Inhibitory activity on IL-6 production (TNF-α-stimulated A549 cells, ELISA). The settings on record: TNF-α stimulation, incubation for 24 hours, IL-6 in supernatant by ELISA. The protocol: (§1) (1) Assaying Inhibitory Activity on IL-6 Production and Cellular Toxicity
(§2) 1.5×10^4 of A549 cells (human lung epithelial cell line) were suspended in dalbeco-modified eagle medium (DMEM) containing 0.5% fetus bovine serum (abbreviated as FBS)˜(100 μl) and incubated in 96 well-microplate over day and night. The test compound dissolved in various kinds of solvents at various concentrations (20 μl) and Tumor Necrosis Factor-α (TNF-α (Genzyme Co, Cat. No. TNF-H)) dissolved in DMEM at the concentration of 12.5 ng/ml (80 μl) were added thereto. After incubation for 24 hours, the supernatant (200 μl) was recovered to assay the quantity of IL-6 using Enzyme Linked Immuno […] Assay (ELISA) Method (R&D Systems Co., Cat. No. D6050), to calculate inhibitory activity of the test compound and determine 50% inhibitory concentration (IC50). To the cells from which the supernatant was removed, a solution of brom 3-(4,5-dimethyl-2-thiazolyl)-2,5-diphenyl-2H-tetrazolinium (abbreviated as MTT (Dojin Chemical Laboratory, Cat. No. 345-01821)) dissolved in DMEM containing 10% FBS at the concentration of 0.5 mg/ml (100 μl) was added and incubated for 3 hours. After removing MTT solution, methanol (100 μl) was added thereto. After lyse the cells, the intensity of absorbance on 570 nm as a control of 690 nm was determined to assay cellular toxicity of the test compound.
In general terms: An ELISA detects its analyte on a solid surface through an enzyme-linked reagent.

Series [2] relates to A549 cells (human lung epithelial cell line). Nature of the series: Cellular toxicity in A549 cells (MTT). The settings on record: at 10 μM. The protocol: as §1, §2
In series [3] the test system is peripheral monocyte prepared from healthy human blood. Nature of the series: Cellular toxicity in peripheral monocyte (MTT). Particulars: at 1 μM. The protocol:
(§3) (2) Assaying Inhibitory Activity on IL-12 Production and Cellular Toxicity
(§4) 2.0×10^5 of peripheral monocyte prepared from healthy human blood by Ficole gravity centrifugation method (Pharmacia Biotech Co, Cat. No. 17-1440-02) were suspended in RPMI1640 medium containing 10% FBS (170 μl). The test compound dissolved in various kinds of solvents at the various concentrations (10 μl) and 6000 units/ml of Interferon-γ (IFN-γ (Serotec Co, Cat. No. PHP050)) (10 μl) dissolved in RPMI1640 medium containing 10% FBS. After incubation for 24 hours in 96 well-microplate, lipopolysaccharide (6 μg/ml) dissolved in RPMI1640 medium containing 10% FBS (LPS (Difco Co., Cat. No. 3120-25-0)) (10 μl) was added thereto. After incubation for 20 hours, the supernatant (150 μl) was recovered to assay the quantity of IL-12 using ELISA Method (R&D Systems Co, Cat. No. D1200), calculate for inhibitory activity of the test compound and determine 50% inhibitory concentration (IC50) (see J. Exp. Med., 183, 147 (1996)). To the cells from which the supernatant (150 μl) was removed, a solution of MTT dissolved in RPMI1640 medium containing 10% FBS at 1 mg/ml (50 μl) was added and incubated for 3 hours. 2-Propanol containing 0.04N HCl (100 μl) was added thereto. After lyse the cells, the intensity of absorbance on 570 nm as a control of 690 nm was determined to assay cellular toxicity of the test compound.

In series [4] the test system is IL-12 production in peripheral monocyte prepared from healthy human blood. Nature of the series: Inhibitory activity on IL-12 production (IFN-γ/LPS-stimulated peripheral monocyte, ELISA). Particulars: IFN-γ 24 hours then LPS 20 hours, IL-12 in supernatant by ELISA. The protocol: as §3, §4

On to `O=S1(=O)CC(S(=O)(=O)c2ccccc2)c2c(OCc3cccnc3)cccc21` (stereo not shown) [Example 20(4) free compound, 4-(Pyridin-3-ylmethyl) oxy-3-phenylsulfonyl-2,3-dihydro-1,1-dioxidebenzo[b]thiophene], for which the IC50 in series [1] came out at 4400 nM. Besides, the cellular toxicity entry in series [2] is recorded as “no cellular toxicity”.
As for `O=S1(=O)CC(S(=O)(=O)c2ccccc2)c2c(OCc3cccnc3)cccc21` (stereo not shown) [Example 20(4) hydrochloride, 4-(Pyridin-3-ylmethyl) oxy-3-phenylsulfonyl-2,3-dihydro-1,1-dioxidebenzo[b]thiophene], the cellular toxicity result in series [3] is given as “no cellular toxicity”. In series [4], this compound gave an IC50 of 110 nM.

One may read the IC50 as the concentration needed to halve the response being measured.
